Measurements published in patent publication US11207369B2, “Compositions and methods for modulating ciliogenesis” (UNIVERSITY OF PITTSBURGH-OF THE COMMONWEALTH SYSTEM OF …, priority 2017, dated 2021).
“Also recorded” adds a separate entry of the source.

Columns and labels:
[1] = system: airway epithelial cells; assay: Inhalational administration to subjects with COPD, video-microscopy of airway epithelial cells; format: in vivo, human; details: approx. 1 mg/kg inhaled once per day for seven days
Protocol: Ten subjects are diagnosed with Chronic Obstructive Pulmonary Disease (COPD). Each subject provides informed consent regarding providing epithelial cell samples and to receiving a blinded treatment of either DAPT or a control placebo. […] The epithelial cells are placed into suitable medium such as Leibovitz-15 medium. Thereafter, cell samples are evaluated for percentage ciliation, cilia length, and/or cilia beat frequency by video-microscopy, and the results are recorded. Video-microscopy confirms each subject has epithelial cells which are reduced in cilia number, cilia length, and/or cilia beat frequency compared to averages or standards present in the medical literature.
DAPT is inhalationally administered to five of the subjects via a nebulizer or an inhaler (hereinafter, “DAPT-treated subjects”). […]
(§1) The epithelial cells are placed into suitable medium such as Leibovitz-15 medium. Thereafter, cell samples are evaluated for percentage ciliation, cilia length, and/or cilia beat frequency by video-microscopy, and the results are recorded. Video-microscopy confirms each of the five DAPT-treated subjects has epithelial cells which are increased in cilia number, cilia length, and/or cilia beat frequency as compared to both 1) the epithelial cells of placebo-treated subjects, and 2) the pre-treatment measurements recorded for epithelial cells of each respective DAPT-treated subject. […]

[2] = system: Hes1, Hes5, Hey1, Notch1, Psen1, Hif1α, nNOS, iNOS, eNOS; assay: qPCR of gene expression in mouse tracheal epithelial cells during ciliogenesis; format: cell-based; details: 2 nM DAPT vs untreated, varying time points in suspension culture, most prominently day 5
Protocol: FIGS. 7(A-I) are graphs showing quantitative […] (qPCR) of gene expression in mouse tracheal epithelial cells during ciliogenesis. Cells were grown to confluence in stationary culture, treated with collagenase, then placed into suspension culture having 0 nM or 2 nM DAPT, which marked the “baseline” time point. At the indicated times, qPCR experiments were performed to detect gene expression of Hes1 (FIG. 7A), Hes5 (FIG. 7B), Hey1 (FIG. 7C), Psen1 (FIG. 7D), Hif1α (FIG. 7E), Notch1 (FIG. 7F), nNOS (FIG. 7G), iNOS (FIG. 7H), and eNOS (FIG. 7I).
Indeed, expression of multiple genes such as Hes1, Hes5, Hey1, Notch1, Psen1, Hif1α, nNOS, iNOS, and eNOS was altered at varying time points during ciliogenesis in suspension culture containing 2 nM DAPT, as compared to untreated (no DAPT) controls (FIGS. 7A-[…]). […] This effect was most marked for the three isoforms of nitric oxide synthase (NOS).

[3] = system: mouse tracheal epithelial cells; assay: Ex vivo reciliation of mouse tracheal epithelial cells in suspension culture (video-microscopy); format: cell-based
From the text: All animal protocols were approved by the University of Pittsburgh Animal Care and Use Committee. Wild-type, C57B6, adult mice (6-8 weeks of age) were euthanized with inhalational CO2, anterior neck regions were washed with 70% ethanol, and a transverse incision was made across the neck at the mid-cervical level. […] The trachea was gently dissected from the underlying adherent esophagus and connective tissue, pulled out and transected proximally first from the larynx and then distally as far down as possible, close to the carina, and placed in a petri dish containing about 10 ml Leibovitz-15 solution (Gibco; 21083). Isolated tracheas were cleaned of adherent muscle tissue, blood vessels and fat under a dissecting microscope, then incised, splaying the trachea length-wise.
Twelve ml of Leibovitz-15 solution were placed in a 15 ml falcon tube, and 6 cleaned, incised tracheas were added to each tube. Pronase (Protease from Streptomyces griseus, Sigma, P5147) was added to a final concentration of 1.5 mg/ml (Stock solution, 150 mg/ml, 100×) and placed in 4° C. overnight with gentle shaking. After incubation, Pronase was neutralized with addition of fetal bovine serum to a final concentration of 10% (1.2 ml/tube). Tracheas and denuded epithelial cells were centrifuged at 1200 rpms for 6 minutes. Supernatant was aspirated, and trachea/cells were re-suspended in 12 ml Stationary media (500 ml DMEM/F12, 10 ml of Ultroser G, and 10 ml of 100× Antibiotics-Antimycotic). The cells/tracheas were pipetted up and down vigorously 12-20 times, and vortexed to re-suspend pelleted tracheas if necessary. Trachea/cells were centrifuged again, supernatants were aspirated, pellets were re-suspended in 6 ml of stationary medium, and then everything was transferred to a Primaria plate (Corning, 353803) or a regular cell culture plate (Corning, 353003), and incubated at 37° C./5% CO2 for 6 hours. This was performed to plate out fibroblasts, thereby minimizing contamination of tracheal epithelial cells with fibroblasts. After incubation, non-adherent cells were collected by lightly washing the plates with stationary media present in the plates. Cells were pelleted, supernatant aspirated, cells re-suspended in 12 ml of stationary medium and added to a 6-well plate (2 ml/well) coated with rat tail collagen.
Tracheal epithelial cells were obtained from mice and processed for stationary culture as detailed above. The tracheal epithelial cells were placed onto rat-tail collagen coated wells and then incubated at 37° C./5% CO2 for 36-48 hrs. Over the course of about 48 hours, the cells seeded onto the collagen lost their cilia and underwent proliferative growth, expanding in numbers. […]

[4] = system: ependymal cells; assay: Intrathecal administration to subjects with hydrocephalus, video-microscopy of ependymal cells; format: in vivo, human; details: approx. 1 mg/kg intrathecal once
Protocol: Ten subjects are diagnosed with hydrocephalus. Each subject provides informed consent regarding providing epithelial cell samples and to receiving a blinded treatment of either DAPT or a control placebo. Intrathecal biopsy is used to obtain ependymal cells from the cerebrospinal fluid of each subject. The ependymal cells are placed into suitable medium such as Leibovitz-15 medium. Thereafter, cell samples are evaluated for percentage ciliation, cilia length, and/or cilia beat frequency by video-microscopy, and the results are recorded. Video-microscopy confirms each subject has ependymal cells which are reduced in cilia number, cilia length, and/or cilia beat frequency compared to averages or standards present in the medical literature. […]
as §1, with “On day eight post-injection, ependymal” for “The epithelial”, “obtained from the cerebrospinal fluid of each subject by intrathecal biopsy. […]” for “placed into suitable medium such as Leibovitz-15 medium.”, “ependymal” for “epithelial”

[5] = system: human nasal epithelial cells; assay: Ex vivo reciliation of human nasal epithelial cells in suspension culture (video-microscopy); format: cell-based; details: 2 nM DAPT vs regular media
Protocol: Cells were immediately placed into 5 ml Leibovitz-15 medium prior to processing for stationary culture.
These cells were spun down, the supernatant was aspirated, cells were resuspended in 6 ml of stationary medium, and then plated onto 3 wells of a 6-well rat tail collagen coated plate. The media was changed 48-72 hours post plating and fed every 2 days until confluence was reached. Following confluence, the treatment of mouse tracheal epithelial cells and human nasal epithelial cells was identical e.g., placement into suspension culture, video microscopy, etc. siRNA knockdown was only performed in mouse tracheal tissue due to the paucity of human nasal epithelial cells.
Once confluence was reached, typically occurring between about 7 to 10 days, the stationary media was aspirated, and collagen was digested with 1 ml of Collagenase 4 (200 IU/ml, Worthington, LS004210) for 75-90 mins at 37° C./5% CO2. After incubation, collagenase was neutralized using 2 ml of Suspension media (500 ml DMEN/F12, 50 ml NuSerum, 10 ml 100× Antibiotics-Antimycotic). Cells adherent to the bottom of the plate were gently scrapped off with a cell scraper (Fisherbrand, 08-100-241). […]
Reciliation was observed by about days 7 to 9 with high-speed video-microscopy (200 fps) with a 60× oil-immersion lens (FIG. 2A). […] The outlined total surface and ciliated surface alone was quantified. Extent of ciliation was calculated by dividing the length of ciliated surface by the length of the entire surface available for ciliation, and converted to a percentage.
To measure cilia length in reciliated nasal tissue, each recording was processed with a custom script written for Fiji, an open-source image analysis software (Schindelin, et al., Nat. Methods, 2012, 9:676-682). This script used the Temporal Median filter to segment patches of cilia based on movement, and the Thickness tool in the BoneJ analysis toolkit (Doube, et al., Bone, 2010, 47:1076-1079) measured average cilia length. Ciliary beat frequency was measured in cilia beats per second (Hertz).] […]

[6] = day eight, vs placebo and pre-treatment
[7] = 2 nM DAPT vs untreated, 8 days suspension culture
[8] = 12 subjects with congenital heart defects

C[C@H](NC(=O)Cc1cc(F)cc(F)c1)C(=O)N[C@H](C(=O)OC(C)(C)C)c1ccccc1 [DAPT, N—[N-(3,5-Difluorophenacetyl)-L-alanyl]-S-phenylglycine t-butyl ester]
cilia number, cilia length, and/or cilia beat frequency of epithelial cells [1, 6]: increased
symptoms of COPD (e.g., coughing) ([1]; some subjects): ameliorated
expression of Hes1, Hes5, Hey1, Notch1, Psen1, Hif1α, nNOS, iNOS and eNOS [2]: altered
cilia beat frequency [3, 7]: significantly increased
cilia length [3, 7]: significantly increased
increased ciliogenesis over baseline (percent ciliation) ([3]; 2 nM DAPT, 8 days suspension culture): ~3 fold
toxicity to cells (cell death, very few if any ciliated cells) ([3]; 2 μM DAPT or more, DMSO volume constant): toxic to cells
cilia number, cilia length, and/or cilia beat frequency of ependymal cells [4, 6]: increased
symptoms of hydrocephalus (e.g., headache) ([4]; some subjects): ameliorated
percentage reciliation (percent ciliation) ([5]; 12 paired samples from subjects with congenital heart defects): significantly greater; also recorded: significant increases
cilia beat frequency [5, 8]: significantly increased; also recorded: significant increases
cilia length [5, 8]: significantly increased; also recorded: significant increases
